# Test results reported in PMC8058163 (Clinical pharmacology and therapeutics, 2020).
# Read-outs that look alike come from different tables or passages of the source.
# Key:
# clinical = settings: both, human, in vivo
Structure (SMILES),increase of geometric mean Cmax (in the presence of goldenseal) [%],increase of systemic exposure (in the presence of goldenseal),AUC(0-inf) (clinical) [µM·h],AUC(0-t) (clinical) [µM·h],CL renal (clinical) [mL/min],AUC(0-inf) (clinical; po) [µM·h],AUC(0-t) (clinical; po) [µM·h],CL renal (clinical; po) [mL/min],Cmax (clinical; po) [nM],half-life (clinical; po) [h],"AUC0–24, goldenseal exposure / baseline ratio (both, human, in vivo)","ClR, goldenseal exposure / baseline ratio (both, human, in vivo)","Cmax, goldenseal exposure / baseline ratio (both, human, in vivo)",Cmax (clinical) [nM],"AUC0–72 (human, in vivo)","Cmax (human, in vivo) [nM]","AUC0–72 (human, in vivo, po)","Cmax (human, in vivo, po) [nM]"
"Cc1ncc2n1-c1ccc(Cl)cc1C(c1ccccc1F)=NC2 [Midazolam, midazolam]",31,~ 40%,0.096,0.086,1.17,0.067,0.062,0.833,26,3.9,,,,,,,,
"CC(C)c1nc(N(C)S(C)(=O)=O)nc(-c2ccc(F)cc2)c1/C=C/[C@@H](O)C[C@@H](O)CC(=O)O [Rosuvastatin acid, rosuvastatin]",,,,0.06,247,,0.059,257,7.4,,1.01 [0.91–1.13],0.96 [0.89–1.03],1.08 [0.94–1.22],7.9,,,,
"CC(C)c1nc(N(C)S(C)(=O)=O)nc(-c2ccc(F)cc2)c1/C=C/[C@@H]1C[C@@H](O)CC(=O)O1 [Rosuvastatin lactone, rosuvastatin lactone]",,,,,,,,,,,,,,,27 [23–32] nM*h,1.5,28 [24–32] nM*h,1.5
"CN(C)C(=N)N=C(N)N [Metformin, metformin]",,,3.8,3.6,700,5,4.7,683,750,,,,,540,,,,
